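Tested at 5 concentrations; 48 h exposure; 96-well plates; endpoints linearly interpolated, else capped at highest concentration. At the GI50, growth is halved. TGI denotes the concentration required for complete inhibition of growth.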
How the values were obtained:
Assay in all cases: growth of human tumour cells (NCI), 48 h
[1] = tested on: RXF 393 renal
[2] = tested on: 786-0 renal
[3] = tested on: BT-549 breast
[4] = tested on: NCI/ADR-RES ovarian
[5] = tested on: UO-31 renal
[6] = tested on: MOLT-4 leukemia
[7] = tested on: MCF7 breast
[8] = tested on: NCI-H226 lung
[9] = tested on: HCT-15 colon
[10] = tested on: T-47D breast
[11] = tested on: SK-MEL-28 melanoma
[12] = tested on: A549 NSCLC
[13] = tested on: HCC-2998 colon
[14] = tested on: MDA-MB-435
[15] = tested on: UACC-62 melanoma
[16] = tested on: DU-145 prostate
[17] = tested on: OVCAR-3 ovarian
[18] = tested on: M14 melanoma
[19] = tested on: PC-3 prostate
[20] = tested on: COLO 205 colon
[21] = tested on: SK-MEL-2 melanoma
[22] = tested on: SK-OV-3 ovarian
[23] = tested on: TK-10 renal
[24] = tested on: HS 578T breast
[25] = tested on: ACHN renal
[26] = tested on: OVCAR-8 ovarian
[27] = tested on: OVCAR-5 ovarian
[28] = tested on: IGROV1 ovarian
[29] = tested on: MDA-MB-231 breast
[30] = tested on: OVCAR-4 ovarian
[31] = tested on: HCT-116 colon
[32] = tested on: HL-60(TB) leukemia
[33] = tested on: HT29 colon
[34] = tested on: NCI-H522 lung
[35] = tested on: RPMI-8226 leukemia
[36] = tested on: SW-620 colon
[37] = tested on: HOP-62 NSCLC
[38] = tested on: UACC-257 melanoma
[39] = tested on: SR leukemia
[40] = tested on: SF-539 CNS
[41] = tested on: SK-MEL-5 melanoma
[42] = tested on: K-562 leukemia
[43] = tested on: SF-295 CNS
[44] = tested on: CAKI-1 renal
[45] = tested on: SF-268 CNS
[46] = tested on: SNB-19 CNS
[47] = tested on: SNB-75 CNS
[48] = tested on: NCI-H460 lung
[49] = tested on: A498 renal
[50] = tested on: CCRF-CEM leukemia
[51] = tested on: NCI-H23 lung
[52] = tested on: LOX IMVI melanoma
[53] = tested on: MALME-3M melanoma
[54] = tested on: SN12C renal
[55] = tested on: U251 CNS
[56] = tested on: KM12 colon

Question: How did the GI50 [1] turn out when CCCn1cc(C2=C(c3cn(C)c4ccccc34)C(=O)NC2=O)c2ccccc21 was run?
Answer: The GI50 was 663 nM.

Question: And the TGI [1]?
Answer: Its TGI is 2870 nM.

Question: And the GI50 [2]?
Answer: The GI50 was 1620 nM.

Question: What about the TGI [2] of the same molecule?
Answer: The TGI was > 25 µM.

Question: What about the GI50 [3] of the same molecule?
Answer: The GI50 was 1360 nM.

Question: What about the TGI [3] of the same molecule?
Answer: Its TGI is 5.95 µM.

Question: And the GI50 [4]?
Answer: Its GI50 is 1320 nM.

Question: And the TGI [4]?
Answer: The TGI was 24.5 µM.

Question: What about the GI50 [5] of the same molecule?
Answer: The GI50 was 1420 nM.

Question: And the TGI [5]?
Answer: Its TGI is 12 µM.

Question: What about the GI50 [6] of the same molecule?
Answer: The GI50 was 2450 nM.

Question: And the TGI [6]?
Answer: Its TGI is > 17.8 µM.

Question: What about the GI50 [7] of the same molecule?
Answer: The GI50 was 565 nM.

Question: And the TGI [7]?
Answer: Its TGI is > 16.2 µM.

Question: And the GI50 [8]?
Answer: Its GI50 is 2690 nM.

Question: And the TGI [8]?
Answer: The TGI was 9.78 µM.

Question: What about the GI50 [9] of the same molecule?
Answer: Its GI50 is 688 nM.

Question: What about the TGI [9] of the same molecule?
Answer: The TGI was > 19.2 µM.

Question: And the GI50 [10]?
Answer: The GI50 was 897 nM.

Question: And the TGI [10]?
Answer: The TGI was 7.62 µM.

Question: What about the GI50 [11] of the same molecule?
Answer: Its GI50 is 2090 nM.

Question: What about the TGI [11] of the same molecule?
Answer: The TGI was 8.69 µM.

Question: And the GI50 [12]?
Answer: Its GI50 is 1860 nM.

Question: What about the TGI [12] of the same molecule?
Answer: Its TGI is > 25 µM.

Question: And the GI50 [13]?
Answer: Its GI50 is 4.85 µM.

Question: And the TGI [13]?
Answer: The TGI was > 25 µM.

Question: What about the GI50 [14] of the same molecule?
Answer: The GI50 was 99.2 nM.

Question: And the TGI [14]?
Answer: Its TGI is 691 nM.

Question: What about the GI50 [15] of the same molecule?
Answer: The GI50 was 1630 nM.

Question: And the TGI [15]?
Answer: The TGI was 5.94 µM.

Question: And the GI50 [16]?
Answer: Its GI50 is 1340 nM.

Question: And the TGI [16]?
Answer: Its TGI is > 22.4 µM.

Question: And the GI50 [17]?
Answer: Its GI50 is 596 nM.

Question: And the TGI [17]?
Answer: The TGI was 2350 nM.

Question: What about the GI50 [18] of the same molecule?
Answer: Its GI50 is 1830 nM.

Question: And the TGI [18]?
Answer: Its TGI is > 18.2 µM.

Question: And the GI50 [19]?
Answer: The GI50 was 1030 nM.

Question: What about the TGI [19] of the same molecule?
Answer: Its TGI is > 25 µM.

Question: And the GI50 [20]?
Answer: The GI50 was 889 nM.

Question: What about the TGI [20] of the same molecule?
Answer: Its TGI is > 7.08 µM.

Question: What about the GI50 [21] of the same molecule?
Answer: The GI50 was 702 nM.

Question: What about the TGI [21] of the same molecule?
Answer: Its TGI is 3.24 µM.

Question: And the GI50 [22]?
Answer: The GI50 was 1220 nM.

Question: And the TGI [22]?
Answer: The TGI was > 19 µM.

Question: What about the GI50 [23] of the same molecule?
Answer: Its GI50 is 3.45 µM.

Question: And the TGI [23]?
Answer: The TGI was 22 µM.

Question: And the GI50 [24]?
Answer: Its GI50 is 766 nM.

Question: And the TGI [24]?
Answer: Its TGI is 16 µM.

Question: What about the GI50 [25] of the same molecule?
Answer: Its GI50 is 2040 nM.

Question: What about the TGI [25] of the same molecule?
Answer: Its TGI is 7.45 µM.

Question: And the GI50 [26]?
Answer: The GI50 was 2010 nM.

Question: And the TGI [26]?
Answer: Its TGI is > 19.6 µM.

Question: What about the GI50 [27] of the same molecule?
Answer: Its GI50 is 6.76 µM.

Question: And the TGI [27]?
Answer: The TGI was > 25 µM.

Question: What about the GI50 [28] of the same molecule?
Answer: Its GI50 is 4.03 µM.

Question: What about the TGI [28] of the same molecule?
Answer: The TGI was > 17 µM.

Question: And the GI50 [29]?
Answer: Its GI50 is 3.91 µM.

Question: And the TGI [29]?
Answer: The TGI was 16.9 µM.

Question: What about the GI50 [30] of the same molecule?
Answer: The GI50 was 3.46 µM.

Question: And the TGI [30]?
Answer: Its TGI is 14.2 µM.

Question: What about the GI50 [31] of the same molecule?
Answer: The GI50 was 1240 nM.

Question: And the TGI [31]?
Answer: Its TGI is 8.52 µM.

Question: And the GI50 [32]?
Answer: Its GI50 is 835 nM.

Question: And the TGI [32]?
Answer: Its TGI is 3.64 µM.

Question: What about the GI50 [33] of the same molecule?
Answer: Its GI50 is 783 nM.

Question: What about the TGI [33] of the same molecule?
Answer: Its TGI is 6.16 µM.

Question: What about the GI50 [34] of the same molecule?
Answer: Its GI50 is 467 nM.

Question: What about the TGI [34] of the same molecule?
Answer: Its TGI is 4.58 µM.

Question: And the GI50 [35]?
Answer: Its GI50 is 1950 nM.

Question: And the TGI [35]?
Answer: Its TGI is 11.6 µM.

Question: What about the GI50 [36] of the same molecule?
Answer: Its GI50 is 968 nM.

Question: What about the TGI [36] of the same molecule?
Answer: The TGI was > 25 µM.

Question: And the GI50 [37]?
Answer: Its GI50 is 1690 nM.

Question: And the TGI [37]?
Answer: The TGI was > 18.4 µM.

Question: And the GI50 [38]?
Answer: The GI50 was 1800 nM.

Question: What about the TGI [38] of the same molecule?
Answer: The TGI was > 25 µM.

Question: What about the GI50 [39] of the same molecule?
Answer: The GI50 was 352 nM.

Question: And the TGI [39]?
Answer: Its TGI is 9.99 µM.

Question: And the GI50 [40]?
Answer: The GI50 was 689 nM.

Question: What about the TGI [40] of the same molecule?
Answer: The TGI was 2800 nM.

Question: And the GI50 [41]?
Answer: The GI50 was 554 nM.

Question: And the TGI [41]?
Answer: Its TGI is 4.36 µM.

Question: What about the GI50 [42] of the same molecule?
Answer: The GI50 was 392 nM.

Question: And the TGI [42]?
Answer: The TGI was > 25 µM.

Question: What about the GI50 [43] of the same molecule?
Answer: Its GI50 is 715 nM.

Question: What about the TGI [43] of the same molecule?
Answer: The TGI was 3.15 µM.

Question: And the GI50 [44]?
Answer: Its GI50 is 937 nM.

Question: And the TGI [44]?
Answer: Its TGI is > 23.2 µM.

Question: And the GI50 [45]?
Answer: Its GI50 is 2640 nM.

Question: And the TGI [45]?
Answer: Its TGI is > 16.1 µM.

Question: What about the GI50 [46] of the same molecule?
Answer: Its GI50 is 5.58 µM.

Question: What about the TGI [46] of the same molecule?
Answer: Its TGI is > 25 µM.

Question: What about the GI50 [47] of the same molecule?
Answer: The GI50 was 458 nM.

Question: And the TGI [47]?
Answer: The TGI was 2090 nM.

Question: What about the GI50 [48] of the same molecule?
Answer: Its GI50 is 1040 nM.

Question: What about the TGI [48] of the same molecule?
Answer: The TGI was 7.39 µM.

Question: And the GI50 [49]?
Answer: The GI50 was 837 nM.

Question: And the TGI [49]?
Answer: The TGI was 4.77 µM.

Question: And the GI50 [50]?
Answer: The GI50 was 790 nM.

Question: What about the TGI [50] of the same molecule?
Answer: Its TGI is > 11.2 µM.

Question: And the GI50 [51]?
Answer: The GI50 was 2670 nM.

Question: What about the TGI [51] of the same molecule?
Answer: Its TGI is 17.8 µM.

Question: What about the GI50 [52] of the same molecule?
Answer: Its GI50 is 2410 nM.

Question: What about the TGI [52] of the same molecule?
Answer: The TGI was 11.2 µM.

Question: And the GI50 [53]?
Answer: The GI50 was 3.44 µM.

Question: And the TGI [53]?
Answer: Its TGI is 9.37 µM.

Question: And the GI50 [54]?
Answer: Its GI50 is 2430 nM.

Question: And the TGI [54]?
Answer: The TGI was 6.47 µM.

Question: And the GI50 [55]?
Answer: The GI50 was 1170 nM.

Question: What about the TGI [55] of the same molecule?
Answer: The TGI was 5.33 µM.

Question: And the GI50 [56]?
Answer: Its GI50 is 1140 nM.

Question: What about the TGI [56] of the same molecule?
Answer: Its TGI is 7.92 µM.
